# Source: publication PMC12396409, “Screening and hit evaluation of a microbial metabolite library against the pathogenic Plasmodium falciparum and Toxoplasma gondii parasites” (International Journal for Parasitology: Drugs and Drug …, 2025)
# Where two headings read alike, the source gives them in different places.
# Legend:
# [1] = tested on: P. falciparum 3D7 parasites; experiment: P. falciparum growth inhibition assay, 1-cycle (72 h treatment), SYBR DNA staining (library screen at 2 μg/mL and dose-response); type: cell-based, Plasmodium falciparum
# [2] = tested on: P. falciparum 3D7 parasites; experiment: P. falciparum growth inhibition assay, 2-cycle (120 h treatment), delayed-death screen and dose-response; type: cell-based, Plasmodium falciparum
# [3] = tested on: T. gondii RH strain (RH-Tub-eYFP) tachyzoites; experiment: microbe, parasite or virus in culture; type: cell-based, Toxoplasma gondii
# [4] = Plasmodium falciparum, 3D7, P. falciparum, 72 h, screen at 2 μg/mL, replicate 1, read-out: Pf_72h_%Growth_Rep1
# [5] = Plasmodium falciparum, 3D7, P. falciparum, 72 h, screen at 2 μg/mL, replicate 2, read-out: Pf_72h_%Growth_Rep2
# [6] = Plasmodium falciparum, 3D7, P. falciparum, 120 h, screen at 2 μg/mL, replicate 1, read-out: Pf_120h_%Growth_Rep1
# [7] = Plasmodium falciparum, 3D7, P. falciparum, 120 h, screen at 2 μg/mL, replicate 2, read-out: Pf_120h_%Growth_Rep2
# [8] = Toxoplasma gondii, 72 h, T. gondii, 72 h, screen at 2 μg/mL, replicate 1; read-out: Tg_72h_%Growth_Rep1
# [9] = Toxoplasma gondii, 72 h, T. gondii, 72 h, screen at 2 μg/mL, replicate 2; read-out: Tg_72h_%Growth_Rep2
# [10] = P. falciparum, 72 h, screen at 2 μg/mL, replicate 1
# [11] = P. falciparum, 72 h, screen at 2 μg/mL, replicate 2
# [12] = P. falciparum, 120 h, screen at 2 μg/mL, replicate 1
# [13] = P. falciparum, 120 h, screen at 2 μg/mL, replicate 2
# [14] = T. gondii, 72 h, screen at 2 μg/mL, replicate 1
# [15] = T. gondii, 72 h, screen at 2 μg/mL, replicate 2
# [16] = Plasmodium falciparum, 3D7, 72 h, P. falciparum, 72 h, screen at 2 μg/mL, replicate 1, read-out: Pf_72h_%Growth_Rep1
# [17] = Plasmodium falciparum, 3D7, 72 h, P. falciparum, 72 h, screen at 2 μg/mL, replicate 2, read-out: Pf_72h_%Growth_Rep2
# [18] = Plasmodium falciparum, 3D7, 120 h, P. falciparum, 120 h, screen at 2 μg/mL, replicate 1, read-out: Pf_120h_%Growth_Rep1
# [19] = Plasmodium falciparum, 3D7, 120 h, P. falciparum, 120 h, screen at 2 μg/mL, replicate 2, read-out: Pf_120h_%Growth_Rep2
# [20] = 3D7, 72 h treatment, mean ± S.D., n ≥ 3, read-out: IC50 (μM), P. falciparum
SMILES,"activity at 2 µg/mL [1, 4] [%]","activity at 2 µg/mL [1, 5] [%]","activity at 2 µg/mL [2, 6] [%]","activity at 2 µg/mL [2, 7] [%]","percent parasite growth at 2 µg/mL [3, 8] [%]","percent parasite growth at 2 µg/mL [3, 9] [%]","Pf_72h_%Growth_Rep1 [1, 10] [%]","Pf_72h_%Growth_Rep2 [1, 11] [%]","Pf_120h_%Growth_Rep1 [2, 12] [%]","Pf_120h_%Growth_Rep2 [2, 13] [%]","Tg_72h_%Growth_Rep1 [3, 14] [%]","Tg_72h_%Growth_Rep2 [3, 15] [%]",other results
COc1cc(-c2ccc(O)cc2)c(OC)c(O)c1-c1ccc(O)cc1 [Terphenyllin],87.2,91.8,179,102,84.9,103,–,–,–,–,–,–,–
C=C1C(=O)C[C@@H]2[C@H]3CC[C@@H](C(=O)O)[C@@]12CC3(C)C [Terrecyclic Acid],–,–,–,–,–,–,17.94,13.49,35.11,10.18,40.31,50.53,–
CC1=C(O)C(=O)[C@@H]2O[C@@H]2C1=O [Terreic acid],–,–,–,–,132,83,–,–,–,–,–,–,"activity at 2 µg/mL [1, 16]: 89.2%; activity at 2 µg/mL [1, 17]: 121%; activity at 2 µg/mL [2, 18]: 100%; activity at 2 µg/mL [2, 19]: 98%"
C/C=C/C1=CC(=O)[C@@H](O)[C@@H]1O [Terrein],77.7,91.3,82,46.1,125,83.6,–,–,–,–,–,–,–
COc1cc(-c2cc3c(c(=O)o2)C[C@]2(O)[C@@]4(C)C(=O)C=CC(C)(C)[C@]4(O)CC[C@@]2(C)O3)cc2c1OCO2 [Territrem A],–,–,–,–,104,88.7,–,–,–,–,–,–,"Mean ([1]; P. falciparum, 72 h, 2 μg/mL, mean of both replicates, growth (% of control)): 49.47; activity at 2 µg/mL [1, 16]: 14.3%; activity at 2 µg/mL [1, 17]: 84.6%; activity at 2 µg/mL [2, 18]: 6.66%; activity at 2 µg/mL [2, 19]: 112%"
COc1cc(-c2cc3c(c(=O)o2)C[C@]2(O)[C@@]4(C)C(=O)C=CC(C)(C)[C@]4(O)CC[C@@]2(C)O3)cc(OC)c1OC [Territrem B],–,–,–,–,89.7,98.2,–,–,–,–,–,–,"activity at 2 µg/mL [1, 16]: 63.6%; activity at 2 µg/mL [1, 17]: 64.7%; activity at 2 µg/mL [2, 18]: 148%; activity at 2 µg/mL [2, 19]: 68.3%"
CN(C)[C@@H]1C(O)=C(C(N)=O)C(=O)[C@@]2(O)C(O)=C3C(=O)c4c(O)cccc4[C@@](C)(O)[C@H]3C[C@@H]12 [Tetracycline],62.1,83.3,164,73.9,–,–,–,–,–,–,–,–,"percent parasite growth at 2 µg/mL ([3]; Toxoplasma gondii, 72 h, read-out: Tg_72h_%Growth_Rep1): 103%; percent parasite growth at 2 µg/mL ([3]; Toxoplasma gondii, 72 h, read-out: Tg_72h_%Growth_Rep2): 101%"
CCCCCCCCCCCCCC(=O)N[C@H]1CCOC1=O [Tetradecanoyl-L-homoserine lactone],–,–,–,–,–,–,70.00,83.15,140.07,68.40,91.68,91.92,–
CCCCCCCCCCC[C@@H](C[C@@H]1OC(=O)[C@H]1CCCCCC)OC(=O)[C@H](CC(C)C)NC=O [Tetrahydrolipstatin],74.2,88.8,171,93.3,88.5,98.4,–,–,–,–,–,–,–
CC[C@H]1C[C@@H]2CC[C@@H](O2)[C@@H](C)C(=O)O[C@H](CC)C[C@H]2CC[C@H](O2)[C@H](C)C(=O)O[C@@H](CC)C[C@@H]2CC[C@@H](O2)[C@@H](C)C(=O)O[C@H](CC)C[C@H]2CC[C@H](O2)[C@H](C)C(=O)O1 [Tetranactin],–,–,–,–,–,–,6.09,-9.23,29.81,14.39,5.41,2.84,–
CC(=O)OC1CCC(C)C2C1C=C(C)C1C(C)=CCCC(C)=CC3(C)C=C(C)C(C)CC34OC(=O)C(=C(O)C12C)C4=O (centres unmarked) [Tetromycin A],–,–,–,–,–,–,87.03,84.23,96.09,91.15,141.34,89.51,–
"CS(=O)(=O)c1ccc([C@@H](O)[C@@H](CO)NC(=O)C(Cl)Cl)cc1 [Thiamphenicol, reference compound]",37.6,61.4,27.2,12.3,106,98,–,–,–,–,–,–,"activity at 2 µg/mL ([1]; Plasmodium falciparum, 3D7; P. falciparum, 2 μg/mL, 72 h; read-out: 1) Growth (%) at 72 h): 49.5%; 3) Fold change (72 h/120 h) ([2]; P. falciparum, growth at 72 h / growth at 120 h, 2 μg/mL): 2.5; activity at 2 µg/mL ([2]; Plasmodium falciparum, 3D7; P. falciparum, 2 μg/mL, 120 h; read-out: 2) Growth (%) at 120 h): 19.8%"
Cc1cc(O)c(C)c(O)c1C(=O)Oc1c(C)c(C)c(C(=O)Oc2c(C)c(C)c(C(=O)O)c(O)c2C)c(O)c1C [Thielavin A],–,–,–,–,–,–,46.40,70.42,119.92,51.57,89.38,91.04,"IC50 [1, 20]: > 1 µM"
COc1c(C)c(OC(=O)c2c(C)c(C)c(OC(=O)c3c(C)cc(O)c(C)c3O)c(C)c2OC)c(C)c(C)c1C(=O)O [Thielavin B],–,–,–,–,–,–,13.97,7.85,38.21,6.65,86.62,101.22,"activity in the screen against P. falciparum ([1]; 2 μg/mL, 72 h, active = ≥80 % growth inhibition): active"
C/C=C(\NC(=O)c1csc(-c2csc(-c3ccc4c(n3)-c3csc(n3)[C@H]([C@@H](C)O)NC(=O)c3csc(n3)[C@H](C(C)(C)O)NC(=O)c3csc(n3)/C(=C/C)NC(=O)[C@H]([C@@H](C)O)NC(=O)c3csc-4n3)n2)n1)C(=O)NC[C@@H](C)O [Thiocillin I],–,–,–,–,–,–,5.41,-2.25,9.85,7.39,86.81,86.09,"IC50 [1, 20]: 0.08 ± 0.008 µM; IC50 ([1]; 72 h treatment, read-out: IC50, P. falciparum): < 0.2 µM"
CC(=O)Nc1c2sscc-2n(C)c1=O [Thiolutin],4.59,0.05,42.4,15.5,–,–,–,–,–,–,–,–,"percent parasite growth at 2 µg/mL ([3]; Toxoplasma gondii; T. gondii, 72 h, screen at 2 μg/mL, replicate 1; read-out: Tg_72h_%Growth_Rep1): 2.01%; percent parasite growth at 2 µg/mL ([3]; Toxoplasma gondii; T. gondii, 72 h, screen at 2 μg/mL, replicate 2; read-out: Tg_72h_%Growth_Rep2): 1.94%"
